One data set deals with T1, AR (Homo sapiens, UniProt P10275).
T1 construct: host or cells: HEK 293T
T1 sequence (P10275 1-920): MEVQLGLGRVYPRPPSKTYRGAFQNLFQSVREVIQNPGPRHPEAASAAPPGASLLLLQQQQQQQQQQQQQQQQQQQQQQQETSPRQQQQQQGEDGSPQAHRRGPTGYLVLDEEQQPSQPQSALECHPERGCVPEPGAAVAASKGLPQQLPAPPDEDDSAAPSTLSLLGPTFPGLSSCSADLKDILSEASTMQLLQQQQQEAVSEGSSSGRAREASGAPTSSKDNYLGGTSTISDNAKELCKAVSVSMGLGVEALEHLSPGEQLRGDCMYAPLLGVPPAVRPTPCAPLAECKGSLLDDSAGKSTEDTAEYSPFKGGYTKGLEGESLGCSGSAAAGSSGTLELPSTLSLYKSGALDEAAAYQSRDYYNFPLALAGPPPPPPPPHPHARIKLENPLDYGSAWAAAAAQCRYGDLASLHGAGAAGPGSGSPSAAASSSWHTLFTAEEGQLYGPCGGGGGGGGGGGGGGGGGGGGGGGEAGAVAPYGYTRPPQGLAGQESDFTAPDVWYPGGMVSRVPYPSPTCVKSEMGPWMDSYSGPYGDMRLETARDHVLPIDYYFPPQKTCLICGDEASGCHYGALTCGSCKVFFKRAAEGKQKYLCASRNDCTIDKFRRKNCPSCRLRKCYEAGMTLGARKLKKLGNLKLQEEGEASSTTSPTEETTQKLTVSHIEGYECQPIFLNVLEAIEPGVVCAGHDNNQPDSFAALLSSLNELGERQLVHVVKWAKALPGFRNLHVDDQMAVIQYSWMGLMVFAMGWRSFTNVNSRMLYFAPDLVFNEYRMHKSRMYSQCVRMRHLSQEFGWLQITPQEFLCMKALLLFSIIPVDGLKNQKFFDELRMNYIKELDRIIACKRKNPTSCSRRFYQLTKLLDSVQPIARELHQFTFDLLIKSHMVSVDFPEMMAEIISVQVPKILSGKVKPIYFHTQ
The data set is described as follows: AR transcriptional output, ARE-luciferase assay in HEK 293T cells. It is filed as cell-based. The following applies: for antagonist or inverse agonist activity on AR transcriptional activity (in words): 10 μM, HEK 293T, FIG. 6A; for activity at 10 µM: HEK-293T, read-out: AR antagonist activity (% RLU). On the procedure:
100% is set to the activity with 200 μM testosterone, and 0% is set to the basal level (no ligand).
Cells were maintained in steroid free media, and stimulated with 200 μM testosterone, followed immediately by administration of exemplary compounds (Table 1, below). RLU is relative luciferase units, relative to DMSO control with 200 μM testosterone alone. Data represent an average of 3 independent experiments performed in triplicate wells per compounds at 10 μM.
Cells were maintained in steroid-free media, and stimulated with 200 μM testosterone, followed immediately by administration of a test compound. […] Compounds were dosed at 10 μM in FIGS. 6A and 6B.
Cells were maintained in steroid-free media, and stimulated with 200 μM testosterone, followed immediately by administration of a test compound.

In another data set the test system is LNCaP. Nature of the data set: IncuCyte % confluence cell growth inhibition, LNCaP. It is filed as cell-based. The conditions noted are these: Homo sapiens, read-out: IC50 values (μM), LNCaP. On the procedure:
(§1) Images were then analyzed to discern the % confluence of cells in each well. IC50 values were calculated from dose response curves of the % cell growth inhibition relative to DMSO control at the same time point per each cell line.

The subject of another data set is LNCAP AR. Nature of the data set: IncuCyte % confluence cell growth inhibition, LNCAP AR. It is filed as cell-based. The following applies: read-out: IC50 values (μM), LNCAP AR. As to the method:
as §1

In the next data set the test system is LAPC4. The data set is described as follows: IncuCyte % confluence cell growth inhibition, LAPC4. The format is cell-based. The conditions noted are these: Homo sapiens, LAPC4, read-out: IC50 values (μM), LAPC4. On the procedure: as §1
For a further data set, the system named is 22Rv1. The data set is described as follows: IncuCyte % confluence cell growth inhibition, 22Rv1. It is filed as cell-based. The conditions noted are these: Homo sapiens, 22Rv1, read-out: IC50 values (μM), 22Rv1. On the procedure: as §1
Another data set deals with LNCaP ARin vivo. Nature of the data set: IncuCyte % confluence cell growth inhibition, LNCaP ARin vivo. It is filed as cell-based. The conditions noted are these: Homo sapiens, read-out: IC50 values (μM), LNCaP ARin vivo. On the procedure: as §1
The test system of a further data set is LNCaP ARF876L. The data set is described as follows: IncuCyte % confluence cell growth inhibition, LNCaP ARF876L. The format is cell-based. The following applies: Homo sapiens, AR-positive, AR mutation F876L, % cell growth inhibition relative to DMSO. As to the method:
as §1

The test system of the next data set is PC3. The data set is described as follows: IncuCyte % confluence cell growth inhibition, PC3. The format is cell-based. The conditions noted are these: Homo sapiens, PC-3, read-out: IC50 values (μM), PC3. On the procedure:
as §1

For the next data set, the system named is DU145. Nature of the data set: IncuCyte % confluence cell growth inhibition, DU145. The format is cell-based. The conditions noted are these: Homo sapiens, DU-145, read-out: IC50 values (μM), DU145. As to the method:
as §1

A short description of data set [1]: Pharmacokinetics in non-tumor bearing BALB/C mice, IV and PO. The format is in vivo. The following applies: for AUClast—D / Cmax—D: dose-normalised; for AUC(0-t) / Cmax / Tmax / half-life: mouse, plasma. On the procedure: FIG. 14A-B are graphs of time (hours) versus plasma concentration (ng/mL) for intravenous (IV) (FIG. 14A) and oral (PO) (FIG. 14B) administration of 15a and 15n over 12 hours. Error bars represent the standard deviation in ng/mL from three independent mice per time point.
Clearance, Cmax, half life, dose/AUC, and bioavailability were calculated by statistical analysis using PHOENIX™ WINNONLIN™ v7.0 (Certara, Princeton, N.J.). The results are shown in FIGS. 14A and 14B and Table 4.

Data set [2] concerns LAMP cells. The data set is described as follows: RNA-seq / gene set enrichment and master TF expression in LAMP cells. It is filed as cell-based. On the procedure: FIG. 16A-B are a Gene Set Enrichment Analysis for AR gene pathways (FIG. 16A) and MYC gene pathways (FIG. 16B) in LAMP cells (LNCaP cells engineered with CRISPR to have amplification of the AR enhancer) treated with either 15n or dimethylsulfoxide (DMSO) for 48 hours, followed by RNA-seq.
FIG. 16A-B are Gene Set Enrichment Analyses for AR gene pathways (FIG. 16A) and MYC gene pathways ([…]) in LAMP cells (LNCaP cells engineered with CRISPR (clustered regularly interspaced short palindromic repeats) to have amplification of the AR enhancer) treated with either 15n or DMSO for 48 hours, followed by RNA-seq.
(§2) This AR dominated cluster 1 is often driven by amplification of the distal AR enhancer (Takeda et al., Cell, 2018, 174(2), 422-432).

In data set [3] the test system is LAMP cells. Nature of the data set: Growth reduction kinetics in LAMP cells. The format is cell-based. The following applies: 15 μM and 30 μM, FIG. 20.
Description: as §2

The subject of data set [4] is LAPC4 prostate cancer cells. The data set is described as follows: LAPC4 mouse xenograft tumor volume. The format is in vivo, Mice. The conditions noted are these: oral gavage, LAPC4 mouse xenografts, day 17, FIG. 22. As to the method:
FIG. 22 is a graph of tumor volume on day 17 as a percent change from the baseline.
Treatment was given once for 5 days followed by 2 days of rest. Tumor size was monitored by caliper twice weekly. Change from baseline tumor volume was calculated and reported as a waterfall plot. The in vivo activity is shown in FIG. 14, as measured by the percent change from the baseline.

The subject of a further data set is LuCaP 167. Nature of the data set: LuCaP 167 prostate cancer PDX tumor growth. The format is in vivo, NSG male mice. The conditions noted are these: 10 mg/kg oral gavage, 5 days on 2 days off, LuCaP 167 PDX, FIG. 23. On the procedure: LuCaP 167 is a well-characterized androgen sensitive prostate cancer (PCa) PDX model established at the University of Washington and has been validated using short tandem repeat (STR) analysis. All preclinical in vivo experiments were performed in accordance with NCI Animal Care and Use Committee approved protocol. Six-week-old NSGmale mice were housed in a sterile, pathogen-free facility and maintained in a temperature-controlled room under a 12-hour light/dark schedule with water and food ad libitum. All mice were operated under sedation with oxygen and isoflurane. Ibuprofen and/or buprenorphine was administered post-surgery. LuCaP 167 was implanted subcutaneously under the left flank of intact mice. When tumors reached an average volume of ˜500 mm^3, mice were randomized and placed in either control group or treatment groups (n=10/group). […] Tumor burden was assessed twice per week by caliper measurement of two diameters of the tumor (L×W=mm^2) and reported as tumor volume ((L×W^2)/2=mm^3). Body weights were assessed using a weighing scale and recorded in grams. At the end-of-treatment (EOT) timepoint, tumor tissues were excised, weighed, and snap frozen for further analysis.

By IC50 is commonly meant the point on the concentration scale where inhibition reaches its midpoint. On to `CC1(C)C(=O)N(c2ccc(C#N)c(C(F)(F)F)c2)C(=O)N1Cc1ccc(-c2c[nH]nn2)cc1` [Compound 14a, 4-(3-(4-(1H-1,2,3-triazol-4-yl)benzyl)-4,4-dimethyl-2,5-dioxoimidazolidin-1-yl)-2-(trifluoromethyl)benzonitrile], for which the “antagonist or inverse agonist activity on AR transcriptional activity (in words)” value at AR is reported as “reduced the transcriptional activity of the AR well below the expression in the absence of any steroids or ligands”. In addition, the activity at 10 µM at AR was -64%. Moreover, the IC50 is 44.8 µM in the data set on LNCaP; 32.5 µM in the data set with LNCAP AR; 70 µM with LAPC4; 46.5 µM in the data set on 22Rv1; 65.4 µM in the data set on LNCaP ARin vivo; 35.9 µM in the data set on LNCaP ARF876L. The IC50 in the data set on PC3 was determined as 68.5 µM; with DU145 it was 84.1 µM.

By AUC(0-t) is commonly meant exposure summed from dosing to a finite time, without extrapolation to infinity. A low value points to low exposure. A word on the Cmax: it is the peak of the concentration-time curve. One may read the Tmax as the time at which the peak concentration occurs. By half-life is commonly meant how long it takes for the measured level to halve. `CC1(C)C(=O)N(c2cnc(C#N)c(C(F)(F)F)c2)C(=S)N1Cc1ccc(-c2c[nH]nn2)cc1` [Compound 15n]: in data set [1] (IV, 1 mg/kg), the “AUClast—D” value came to 6255.85 kg·ng·h/mL/mg, the “Cmax—D” value amounted to 936.94 kg·ng/mL/mg, the AUC(0-t) was 6260 ng·h/mL and the highest concentration (Cmax) is 937 ng/mL. Moreover, in data set [1] (IV, 1 mg/kg), the time to peak (Tmax) was 0.5 h and the half-life is 9.13 h. Besides, in data set [1] (PO, 20 mg/kg), the “AUClast—D” value is 4866.48 kg·ng·h/mL/mg, the “Cmax—D” value turned out to be 549.09 kg·ng/mL/mg, the AUC(0-t) turned out to be 97300 ng·h/mL and the concentration peaked (Cmax) at 11000 ng/mL. In addition, in [1] (PO, 20 mg/kg), the time to peak (Tmax) amounted to 1 h and the half-life is 22.3 h. Besides, the ATF4 expression result with LAMP cells [2] (48 hours, FIG. 19) is “greatly reduced”. For the same compound, in the data set on LAMP cells [2] (48 hours, versus DMSO, RNA-seq), the “AR target gene set (Gene Set Enrichment Analysis)” value is on record as “down regulated” and the “MYC target gene set (Gene Set Enrichment Analysis)” value is listed as “down regulated”. For the same compound, in the data set on LAMP cells [2] (compared with enzalutamide), the “ATF4 driven amino-acid tRNA synthesis pathway” value is recorded as “able to also downregulate”. Further, in the data set with LAMP cells [3], the “cell killing compared with enzalutamide” value is on record as “superior cell killing at lower doses than enzalutamide”. Besides, the “tumor burden (percent change from baseline tumor volume)” value in data set [4] was “retained its ability to reduce tumor burden”. Moreover, the “anti-tumor effect (average tumor growth rate)” value with LuCaP 167 is “superior anti-tumor effect over enzalutamide”.

In the case of `CC1(C)C(=O)N(c2ccc(C#N)c(C(F)(F)F)c2)C(=S)N1c1ccc(-c2c[nH]nn2)cc1` [Compound 16a, 4-(3-(4-(1H-1,2,3-triazol-4-yl)phenyl)-4,4-dimethyl-5-oxo-2-thioxoimidazolidin-1-yl)-2-(trifluoromethyl)benzonitrile], at AR, the “antagonist or inverse agonist activity on AR transcriptional activity (in words)” value is recorded as “reduced the transcriptional activity of the AR well below the expression in the absence of any steroids or ligands”. The activity at 10 µM at AR was -22%. The 50% inhibitory concentration (IC50) in the data set on LNCaP was 17.1 µM; in the data set on LNCAP AR, 21.2 µM; with LAPC4, 17.3 µM; in the data set on 22Rv1, 20.7 µM; in the data set with LNCaP ARin vivo it was 33.6 µM; with LNCaP ARF876L, 30.2 µM. The half-inhibitory concentration (IC50) was found to be 49.2 µM with PC3 and 39.9 µM with DU145.

With `CC1(C)C(=O)N(c2ccc(C#N)c(C(F)(F)F)c2)C(=S)N1Cc1ccc(-c2c[nH]nn2)c(F)c1` [Compound 19c, 4-(3-(3-Fluoro-4-(1H-1,2,3-triazol-4-yl)benzyl)-4,4-dimethyl-5-oxo-2-thioxoimidazolidin-1-yl)-2-(trifluoromethyl)benzonitrile], the half-maximal inhibitory concentration (IC50) is 36.2 µM with LNCaP; 28 µM in the data set with LNCAP AR; 17.9 µM with LAPC4; 25.3 µM in the data set with 22Rv1; 34 µM in the data set with LNCaP ARin vivo; 33.9 µM in the data set on LNCaP ARF876L. Besides, the half-maximal inhibitory concentration (IC50) in the data set on PC3 came to 59.9 µM; in the data set with DU145 it was 114 µM.

(Values after patent publication US20230135524A1, “ARYL HYDANTOIN HETEROCYCLES AND METHODS OF USE” (The United States of America,as represented by the …, priority 2020, published 2023).)
